Publication PMC10126473 (Frontiers in Pharmacology, 2023)
Converted amounts (≈) assume the structure as drawn. “And” between values parts separate entries of the source, which are not always exact repeats. Equal values may be shown once. Read-outs that look alike come from different tables or passages of the source. Marks after values point to notes of the source that are not given here.

Legend:
[1] = physchem; conditions: pH 7.4, aqueous buffer, kinetic from dmso stock
Method: Samples were incubated at room temperature for 6 h and vacuum-filtered using Tecan Te-Vac to remove any precipitates. The concentration of the compound in the filtrate was measured via UV absorbance (λ: 250–498 nm). […] All compounds were tested in duplicates. The kinetic solubility (µg/mL) of compounds was calculated using the µSOL Evolution software.

[2] = in vivo; conditions: male, C57BL/6, mouse, in vivo
Method: The in-life study (Animal Study Protocol Number: NIH ORS-51) was conducted at the NIH Animal Facility by the Division of Veterinary Resources (DVR, Bethesda, MD). In this study, 25–35 g male C57BL/6 mice (Charles River Laboratories, Frederick, MD) were used. For the IV groups, 66 mice (33 mice per dosing group, 3 mice per timepoint) were used for a single bolus IV dose of 3 or 10 mg/kg of PDN via tail vein injection. […] The IV and PO doses were selected to obtain a complete concentration profile in plasma and tissues, based on a preliminary study. Animals were not fasted in this study. […] All dosing solutions were freshly prepared on the day of dosing. At designated time points, blood samples were collected, and mice were euthanized with CO2 in accordance with NIH ARAC Guidelines after blood collection. The death was ensured by cervical dislocation or transthoracic puncture. Lung, liver, adipose, brain, heart, small intestine, kidney, skeletal muscle, and spleen samples were obtained from mice. […] Tissue samples were rinsed with cold saline, dried on filtrate paper, weighed, and snap frozen by placing into dry ice after collection. All samples were stored at −80°C until the analysis. All blood samples were collected in K2EDTA tubes and centrifuged at 3000 g for 10 min at 4°C to obtain plasma. Plasma samples were transferred to tubes preloaded with NaF (final concentration at 5 mM in 200 µL plasma) and stored at −80°C until analysis.
(§1) For fat tissue, an additional 3-fold volume of acetonitrile was added to the water homogenate and was vortexed in a shaker for another 30 min.
(§2) A 10 μ aliquot of samples, blank controls (blank plasma or tissue homogenates), quality controls (QC), and standards were added into 200 μ acetonitrile solution with 100 ng/mL tolbutamide (internal standard, IS). All samples were then thoroughly shaken for 5 min to precipitate proteins. The samples were centrifuged at 3000 rpm and 4°C for 30 min. The supernatant was injected for UPLC-MS/MS analysis.
(§3) The mobile phase consisted of 0.1% formic acid in water (A) and 0.1% formic acid in acetonitrile (B), the flow rate was 600 μL/min. […] All analyses were carried out using a Waters Acquity I-Class UPLC interfaced with a Waters Xevo TQ-S mass spectrometer. The mass spectrometer multiple reaction monitoring (MRM) experiment was operated with an ESI source at negative mode with spray voltage of 1 kV, and temperature of 600°C. Both Q1 and Q3 were set at unit resolution. […] The correlation coefficients of the calibration curves were all greater than 0.99. […] The linear range, precision and accuracy of QCs in various tissues and plasma are shown in Supplementary Table S1 and Supplementary Table S2.
(§4) The area under the concentration vs. time curve (AUC) was calculated using the linear trapezoidal method. The terminal rate constant (λ) was obtained from the slope of at least three data points of the apparent terminal phase of the log linear concentration vs. time curve. AUC0–∞ was estimated as the sum of the AUC0–t (where t is the time of the last measurable concentration) and Ct/λ. […] Bioavailability (F) was calculated using ratios of dose-normalized AUC of PO and IV administration.

[3] = in vivo; conditions: hamster, in vivo
Method: For the IV group, a single bolus IV dose of 3 mg/kg of PDN was administered to 24 hamsters (3 hamsters per time point). For the PO group, a dose of 30 mg/kg of PDN was administered via oral gavage to 21 hamsters (3 hamsters per time point). The formulation used for both IV and PO was 20% HP-β-CD in water (0.6 mg/mL PDN for IV and 3 mg/mL for PO). All dosing solutions were freshly prepared on the day of dosing. […] After collection, tissues were weighed and frozen. All blood samples were centrifuged at 4°C to obtain plasma. Plasma samples were transferred to tubes preloaded with NaF (final concentration at 5 mM in 200 µL plasma) and stored at −80°C until analysis.
as §1, §2, §3, §4

[4] = PBPK model (GastroPlus): simulation and model parameters incl. permeability surface product and scaled metabolic kinetics, mouse; conditions: conversion to Others
Method: (§5) CL in vitro,app expressed as mL/min/mg microsomes were scaled to the predicted CLintrinsic using scaling factor (SF), microsome level and liver weight as indicated below: CLintrinsic=CLin vitro,app×SF×liver weight×microsome level per gram liver
(§6) All modeling and simulation were carried out using GastroPlus version 9.5 (Simulations Plus Inc., CA). Physiochemical parameters including blood-to-plasma ratio (Rbp), pKa, and logP were predicted by ADMET predictor (Simulations Plus Inc., CA). Physiologies of all species, including organ weights, volumes, tissue compositions, and blood perfusion rates, were generated by the program’s internal module. Tissue intracellular unbound fractions were generated by GastroPlus based on predicted or experimentally determined physiochemical and chemical-biological parameters including pKa, logP, plasma unbound fractions (Fup), Rbp, solubility, and PAMPA permeability. The PBPK model structure is illustrated in Figure 2 and its parameters are summarized in Supplementary Tables S3–6. The default absorption and dissolution model was applied and effective intestine permeability was predicted by a built-in correlation from the experimental PAMPA permeability result. Parameters including partition coefficients in tissue (Kp), CLintrinsic, and permeability surface area product (PStc) were estimated by fitting the model to experimental data using the optimization module in GastroPlus with objective function weights at 1/(y + ŷ)^2, where y is the observed value and ŷ is the predicted value.
Model parameter estimation of all plasma-tissue partition coefficients (Kp) was performed simultaneously using both the IV and PO datasets. […] The experimentally determined pharmacokinetic profiles were compared with the model simulations.

[5] = PBPK model (GastroPlus): simulation and model parameters incl. permeability surface product and scaled metabolic kinetics, hamster; conditions: conversion to Others
Method: as §5, §6
Experimental measurements of hamster plasma pharmacokinetics and lung concentrations were used in the model validation.

[6] = PBPK model (GastroPlus): simulation and model parameters incl. permeability surface product and scaled metabolic kinetics, human; conditions: conversion to Others
[7] = mouse, pH 7.4
Method: (§7) The incubation was carried out at 37°C for 15, 30, and 60 min. The reaction in plasma or liver microsomes was quenched by adding 200 μL of cold acetonitrile (containing 100 ng/mL tolbutamide as internal standard).
(§8) The mc was the microsome concentration used in the incubation (0.5 mg/mL). The substrate disappearance half-life (t1/2) was estimated by regression analysis of the semi-logarithmic (ln Conc vs. time) plots. […] The Vmax, in vitro,app, PDN-total and Km for PDN depletion in liver microsomes were estimated by the Michaelis-Menten model using GraphPad Prism version 8.

[8] = hamster, pH 7.4
Method: as §7, §8

[9] = human, pH 7.4
Method: as §7, §8

[10] = cited from earlier work
[11] = rat, in vivo, cited from earlier work
[12] = dog, in vivo; cited from earlier work
[13] = human, in vivo, po, cited from earlier work
[14] = cited from earlier work; remark: listed apart in the source
[15] = human; cited from earlier work
[16] = test system: UGT enzymes; conditions: cited from earlier work
[17] = rats, acute toxicity test; ref Andrews et al., 1982; cited from earlier work
[18] = in vitro; conditions: PAMPA, pH 7.4
Method: The test samples (0.05 mM test article in pH 7.4 buffer with 0.5% DMSO) were added in the donor compartment and were stirred using the Gutbox technology (Pion Inc.) to reduce the aqueous boundary layer. The test article concentrations in the donor and acceptor compartments were measured using a UV plate reader (Nano Quant, Infinite 200 PRO, Tecan Inc., Männedorf, Switzerland).

[19] = male, LVG golden Syrian, po, 30 mg/kg
[20] = in vivo, predicted from in vitro liver parameters

Work on CCCSc1ccc2nc(NC(=O)OC)[nH]c2c1 [Albendazole, reference compound] yielded a solubility [1] of under 1 µg/mL.
O=C(Nc1ccc([N+](=O)[O-])cc1Cl)c1cc(Cl)ccc1O [Nc, Niclosamide, reference compound] gave an AUC(0-inf) ([2]; iv, 3 mg/kg) of 577 ng·h/mL, an AUC(0-inf) ([2]; iv, 10 mg/kg) of 1390 ng·h/mL and an AUC(0-inf) ([2]; po, 10 mg/kg) of 1610 ng·h/mL. For the same compound, the Cmax ([2]; po, 10 mg/kg) was 346 ng/mL, the “dose-normalized AUC0-∞ of Nc” value ([2]; po, 10 mg/kg) was 216 (h*ng/mL)/(mg/kg) and the “AUC0-∞ Observed” value ([3]; iv, 3 mg/kg) was 1030 (98) h*ng/g. For the same compound, the “AUC0-∞ Observed” value ([3]; po, 30 mg/kg) was 5020 (294) h*ng/g, the AUC(0-inf) ([3]; male, LVG golden Syrian, iv, 3 mg/kg) was 203 ng·h/mL and the AUC(0-inf) [3, 19] was 1890 ng·h/mL. For the same compound, the Cmax [3, 19] was 1170 ng/g and 623 ng/mL, the “dose normalized plasma AUC0-∞ of Nc” value [3, 19] was 88 (h*ng/mL)/(mg/kg) and the Tmax ([3]; male, LVG golden Syrian, po, 30 mg/kg, Tmax Observed) was 1 h. The half-life ([3]; male, LVG golden Syrian, po, 30 mg/kg, t1/2 Observed) was about 1.9 h, the “Liver Vmax” value ([4]; in vivo (scaled)) was 0.0949 mg/s/mg microsomes and the “Gut Vmax” value [4, 20] was 0.0408 mg/s/mg microsomes. For the same compound, the “Liver Vmax” value ([5]; in vivo (scaled)) was 0.1463 mg/s/mg microsomes, the “Gut Vmax” value [5, 20] was 0.0629 mg/s/mg microsomes and the “Liver Vmax” value ([6]; in vivo (scaled)) was 0.0738 mg/s/mg microsomes. For the same compound, the “Gut Vmax” value [6, 20] was 0.0317 mg/s/mg microsomes, the “Liver Vmax” value [7] was 0.07474 mg/s/mg microsomes and the “Liver Vmax” value [8] was 0.1152 mg/s/mg microsomes. The “Liver Vmax” value [9] was 0.0581 mg/s/mg microsomes, the PAMPA permeability [10] was <1 ^b 10^−6 cm/s and the oral bioavailability ([11]; po) was 5.5%. For the same compound, the volume of distribution [11] was “less than 0.4 L/kg”, the oral bioavailability [12] was 0.54% and the “plasma Cmax” value ([13]; 500 mg) was 35.7 to 182 ng/mL. The “serum maximal concentration (Cmax), Nc equivalent” value ([13]; 2000 mg) was 250 to 6000 ng/mL, the “median plasma Cmax” value [13] was 665 ng/mL and the “Fup (unbound fraction in plasma)” value [14] was 0.14% (rodent) ^b. The plasma protein binding [14] was over 99.8%, the “Fup (unbound fraction in plasma)” value [15] was 0.16% (human) ^b and the Km [16] was 0.09 to 1.67 µM. For the same compound, the “UGT-mediated hepatic CL in vitro,app” value ([16]; mouse) was 0.18-0.21 mL/min/mg microsomes and the “oral LD50” value [17] was over 5000 mg/kg.
Nc1ccc(/N=N/c2ccccc2)c(N)n1 [Phenazolpyridine, reference compound] showed a solubility [1] of 26 µg/mL (≈ 122 µM).
In the case of CNC(=C[N+](=O)[O-])NCCSCc1ccc(CN(C)C)o1 [Ranitidine, reference compound], the Papp at 0.05 mM [18] is reported as under 1 ×10⁻⁶ cm/s.
